Read-outs that look alike come from different tables or passages of the source.
Key:
[1] = target: Rhesus PDE2A3 (Macaca mulatta, UniProt B3VTJ2); assay: PDE2 fluorescence polarization (IMAP FP) assay, rhesus PDE2A3; assay type: biochemical, rhesus macaque
[2] = target: human PDE2A1 (Homo sapiens (Human), UniProt O00408); assay: PDE selectivity IMAP FP assay, human PDE2A1; assay type: biochemical; details: Human PDE2
In short: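 IMAP fluorescence polarization assay; PDE2 substrate 50 nM FAM-cAMP containing 1000 nM cGMP, enzyme diluted for 20% substrate conversion, in 10 mM Tris HCl pH 7.2, 10 mM MgCl2, 1 mM DTT. Reaction 60 min at room temperature, stopped with IMAP binding solution; polarization read after 1 h. Ki reported.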

[3] = Lab A, read-out: Rhesus PDE2 Ki (nM) Lab A
[4] = Lab B, read-out: Rhesus PDE2 Ki (nM) Lab B
[5] = Lab A, read-out: Human PDE2 Ki (nM) Lab A
[6] = Lab B, read-out: Human PDE2 Ki (nM) Lab B

Chain of human PDE2A1 (O00408 other isoform, or with tags, fused parts or gaps): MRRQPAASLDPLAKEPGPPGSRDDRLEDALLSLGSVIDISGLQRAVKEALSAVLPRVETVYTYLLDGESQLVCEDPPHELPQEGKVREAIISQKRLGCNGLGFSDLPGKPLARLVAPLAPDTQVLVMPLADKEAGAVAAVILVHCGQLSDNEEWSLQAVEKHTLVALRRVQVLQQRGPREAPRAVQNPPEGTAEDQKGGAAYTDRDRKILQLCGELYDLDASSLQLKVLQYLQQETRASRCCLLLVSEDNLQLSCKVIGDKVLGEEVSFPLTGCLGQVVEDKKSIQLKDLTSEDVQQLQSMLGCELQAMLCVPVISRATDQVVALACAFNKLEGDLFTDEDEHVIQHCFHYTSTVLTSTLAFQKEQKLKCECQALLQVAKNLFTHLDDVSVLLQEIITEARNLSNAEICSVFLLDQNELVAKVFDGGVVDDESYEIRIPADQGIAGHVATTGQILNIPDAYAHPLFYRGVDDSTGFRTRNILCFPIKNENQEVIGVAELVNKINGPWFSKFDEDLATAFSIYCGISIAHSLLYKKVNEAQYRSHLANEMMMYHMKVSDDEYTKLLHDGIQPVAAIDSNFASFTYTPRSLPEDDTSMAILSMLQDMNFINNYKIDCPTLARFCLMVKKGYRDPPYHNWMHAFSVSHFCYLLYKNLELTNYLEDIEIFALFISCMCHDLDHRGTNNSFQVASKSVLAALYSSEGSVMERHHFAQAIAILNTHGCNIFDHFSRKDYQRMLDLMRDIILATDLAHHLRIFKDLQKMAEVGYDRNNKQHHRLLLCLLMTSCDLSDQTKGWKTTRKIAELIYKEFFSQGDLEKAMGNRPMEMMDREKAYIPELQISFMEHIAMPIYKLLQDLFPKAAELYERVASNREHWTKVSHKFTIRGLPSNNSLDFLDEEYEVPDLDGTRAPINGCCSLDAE
Chain of Rhesus PDE2A3 (B3VTJ2 1-941): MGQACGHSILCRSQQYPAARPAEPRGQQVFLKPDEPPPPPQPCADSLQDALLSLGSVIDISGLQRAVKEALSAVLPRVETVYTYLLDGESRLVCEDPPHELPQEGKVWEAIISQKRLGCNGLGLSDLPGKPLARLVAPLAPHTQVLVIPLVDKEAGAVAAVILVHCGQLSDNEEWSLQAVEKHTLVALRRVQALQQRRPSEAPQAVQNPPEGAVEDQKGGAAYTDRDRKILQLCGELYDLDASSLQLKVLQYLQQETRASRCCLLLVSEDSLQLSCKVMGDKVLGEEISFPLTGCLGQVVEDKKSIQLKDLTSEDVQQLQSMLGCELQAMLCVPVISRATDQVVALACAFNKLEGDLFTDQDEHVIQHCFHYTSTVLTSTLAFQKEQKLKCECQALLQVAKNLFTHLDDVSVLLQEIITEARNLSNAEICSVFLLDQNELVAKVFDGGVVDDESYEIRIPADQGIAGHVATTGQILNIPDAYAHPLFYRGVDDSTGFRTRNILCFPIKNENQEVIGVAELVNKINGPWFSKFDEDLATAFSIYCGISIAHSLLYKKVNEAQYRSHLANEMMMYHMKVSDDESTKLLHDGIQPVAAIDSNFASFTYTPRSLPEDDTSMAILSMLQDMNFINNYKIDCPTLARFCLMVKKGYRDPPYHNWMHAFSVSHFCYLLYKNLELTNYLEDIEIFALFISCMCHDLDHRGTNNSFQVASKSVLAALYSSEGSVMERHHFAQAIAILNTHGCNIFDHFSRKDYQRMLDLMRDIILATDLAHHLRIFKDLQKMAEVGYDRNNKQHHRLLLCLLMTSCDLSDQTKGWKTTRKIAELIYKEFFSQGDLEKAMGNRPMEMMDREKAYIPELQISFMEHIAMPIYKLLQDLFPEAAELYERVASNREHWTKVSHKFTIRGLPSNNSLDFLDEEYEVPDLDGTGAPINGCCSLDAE

Ki [1, 3]	Ki [1, 4]	Ki [2, 5]	Ki [2, 6]	SMILES
	6.2 nM		5.6 nM	O=c1[nH]c(O)nc2c1c(CF)nn2[C@H](c1ccc(C(F)(F)F)c(F)c1)C1CC1 [Example 48, (S)-1-(Cyclopropyl(3-fluoro-4-(lrifluoromethyl)phenyl)methyl)-3-(fluoromethyl)-6-hydroxy-1H-pyrazolo[3,4-d]pyrimidin-4(5H)-one]
	6.8 nM		7 nM	C[C@@H](c1ccc(S(F)(F)(F)(F)F)cc1)n1nc(CF)c2c(=O)[nH]c(O)nc21 [Example 50, (S)-3-(Fluoromethyl)-6-hydroxy-1-(1-(4-(pentafluorolhio)phenyl)ethyl)-1H-pyrazolo[3,4-d]pyrimidin-4(5H)-one]
26 nM	40 nM	11 nM	28 nM	Cc1ccc(C(C)n2nc(CCl)c3c(=O)[nH]c(O)nc32)cc1 (stereo not shown) [Example 57, 3-(Chloromethyl)-6-hydroxy-1-(1-p-tolylethyl)-1H-pyrazolo[3,4-d]pyrimidin-4(5H)-one]
69 nM		49 nM		Cc1nn(C(C)c2ccc(C(F)(F)F)cc2)c2nc(O)[nH]c(=O)c12 (stereo not shown) [Example 58, 6-Hydroxy-3-methyl-1-{1-[4-(trifluoromethyl)phenyl]ethyl}-1,5-dihydro-4H-pyrazolo[3,4-d]pyrimidin-4-one]
1140 nM		760 nM		COc1nc2c(c(C)nn2C(C)c2ccc(C(F)(F)F)cc2)c(=O)[nH]1 (stereo not shown) [Example 59, 6-Methoxy-3-methyl-1-{1-[4-(trifluoromethyl)phenyl]ethyl}-1,5-dihydro-4H-pyrazolo[3,4-d]pyrimidin-4-one]
278 nM		207 nM		Cc1nn(C(C)c2ccc(OC(F)(F)F)cc2)c2nc(O)[nH]c(=O)c12 (stereo not shown) [Example 60, 6-Hydroxy-3-methyl-1-{1-[4-(trifluoromethoxy)phenyl]ethyl}-1,5-dihydro-4H-pyrazolo[3,4-d]pyrimidin-4-one]
	0.57 nM		0.55 nM	C[C@@H](c1ccc(C(F)(F)F)cc1)n1nc(CO)c2c(=O)[nH]c(N(C)C)nc21 [Example 154, (S)-6-(Dimethylamino)-3-(hydroxymethyl)-1-(1-(4-(trifluoromethyl)phenyl)ethyl)-1H-pyrazolo[3,4-d]pyrimidin-4(5H)-one]
	1.9 nM		1.6 nM	C[C@@H](c1ccc(C(F)(F)F)cc1)n1nc(CO)c2c(=O)[nH]c(N3CC(F)C3)nc21 [Example 161, 6-(3-Fluoroazetidin-1-yl)-3-(hydroxymethyl)-1-{(1S)-1-[4-(trifluoromethyl)phenyl]ethyl}-1,5-dihydro-4H-pyrazolo[3,4-d]pyrimidin-4-one]
8 nM		5.6 nM		Cc1nn(C(C)c2ccc(C(F)(F)F)cc2)c2nc(N3CCCC3)[nH]c(=O)c12 (stereo not shown) [Example 268, 3-Methyl-6-pyrrolidin-1-yl-1-{1-[4-(trifluoromethyl)phenyl]ethyl}-1,5-dihydro-4H-pyrazolo[3,4-d]pyrimidin-4-one]
139 nM		85 nM		CNc1nc2c(c(C)nn2C(C)c2ccc(C(F)(F)F)cc2)c(=O)[nH]1 (stereo not shown) [Example 269, 3-Methyl-6-(methylamino)-1-(1-(4-(trifluoromethyl)phenyl)ethyl)-1,5-dihydro-4H-pyrazolo[3,4-d]pyrimidin-4-one]
6 nM		3.9 nM		Cc1nn(C(C)c2ccc(C(F)(F)F)cc2)c2nc(N(C)C)[nH]c(=O)c12 (stereo not shown) [Example 270, 6-(Dimethylamino)-3-methyl-1-{1-[4-(trifluoromethyl)phenyl]ethyl}-1,5-dihydro-4H-pyrazolo[3,4-d]pyrimidin-4-one]

The remaining lines, values behind:

SMILES	Ki [1, 3]	Ki [1, 4]	Ki [2, 5]	Ki [2, 6]
CC(c1ccc(C(C)(C)C)cc1)n1nc(CO)c2c(=O)[nH]c(O)nc21 (stereo not shown) [Example 7, 1-(1-(4-tert-Butylphenyl)ethyl)-6-hydroxy-3-(hydroxymethyl)-1H-pyrazolo[3,4-d]pyrimidin-4(5H)-one]	51 nM	64 nM	27 nM	59 nM
O=c1[nH]c(O)nc2c1c(CO)nn2C1(c2ccc(C(F)(F)F)cc2)CCC1 [Example 26, 6-Hydroxy-3-(hydroxymethyl)-1-(1-(4-(trifluoromethyl)phenyl)cyclobutyl)-1H-pyrazolo[3,4-d]pyrimidin-4(5H)-one]		50 nM		39 nM
O=c1[nH]c(O)nc2c1c(CO)nn2C(CF)c1ccc(C(F)(F)F)cc1 (stereo not shown) [Example 33, 1-(2-Fluoro-1-(4-(trifluoromethyl)phenyl)ethyl)-6-hydroxy-3-(hydroxymethyl)-1H-pyrazolo[3,4-d]pyrimidin-4(5H)-one]		50 nM		71 nM
CC(c1ccc(OC(F)(F)F)cc1)n1nc(CF)c2c(=O)[nH]c(O)nc21 (stereo not shown) [Example 36, 3-(Fluoromethvl)-6-hydroxy-1-(1-(4-(trifluoromethoxy)phenyl)ethyl)-1H-pyrazolo[3,4-d]pyrimidin-4(5H)-one]	11 nM	18 nM	6.5 nM	17 nM
Cc1ccc(C(C)n2nc(CF)c3c(=O)[nH]c(O)nc32)cc1 (stereo not shown) [Example 37, 3-(Fluoromethyl)-6-hydroxy-1-(1-p-tolylethyl)-1H-pyrazolo[3,4-d]pyrimidin-4(5H)-one]	85 nM		44 nM	
CC(c1ccc(OC(F)(F)F)c(F)c1)n1nc(CF)c2c(=O)[nH]c(O)nc21 (stereo not shown) [Example 38, 1-(1-(3-Fluoro-4-(trifluoromethoxy)phenyl)ethyl)-3-(fluoromethyl)-6-hydroxy-1H-pyrazolo[3,4-d]pyrimidin-4(5H)-one]	7.2 nM	8.3 nM	2.8 nM	8.5 nM
O=c1[nH]c(O)nc2c1c(CF)nn2C(c1ccc(C(F)(F)F)cc1)C1CC1 (stereo not shown) [Example 39, 1-(Cyclopropyl(4-(trifluoromethyl)phenyl)methyl)-3-(fluoromethyl)-6-hydroxy-1H-pyrazolo[3,4-d]pyrimidin-4(5H)-one]	3.6 nM	5.5 nM	2.2 nM	6.3 nM
CC(C)C(c1ccc(C(F)(F)F)cc1)n1nc(CF)c2c(=O)[nH]c(O)nc21 (stereo not shown) [Example 40, 3-(Fluoromethyl)-6-hydroxy-1-(2-methyl-1-(4-(trifluoromethyl)phenyl)propyl)-1H-pyrazolo[3,4-d]pyrimidin-4(5H)-one]	1.7 nM	2 nM	0.56 nM	2.1 nM
CC(c1ccc(C(F)(F)F)cc1)n1nc(CF)c2c(=O)[nH]c(O)nc21 (stereo not shown) [Example 41, 3-(Fluoromethyl)-6-hydroxy-1-{1-[4-(trifluoromethyl)phenyl]ethyl}-1,5-dihydro-4H-pyrazolo[3,4-d]pyrimidin-4-one]	3.5 nM		2.3 nM	
O=c1[nH]c(O)nc2c1c(CF)nn2C1(c2ccc(C(F)(F)F)cc2)CCC1 [Example 46, 3-(Fluoromethyl)-6-hydroxy-1-(1-(4-(trifluoromethyl)phenyl)cyclobutyl)-1H-pyrazolo[3,4-d]pyrimidin-4(5H)-one]		11 nM		9.2 nM
C[C@@H](c1ccc(C(C)(C)C)cc1)n1nc(CF)c2c(=O)[nH]c(O)nc21 [Example 47, (S)-1-(1-(4-tert-Butylphenyl)ethyl)-3-(fluoromethyl)-6-hydroxy-1H-pyrazolo[3,4-d]pyrimidin-4(5H)-one]		6.9 nM		5.1 nM
CC(C)[C@@H](c1ccc(C(C)(C)C)cc1)n1nc(CF)c2c(=O)[nH]c(O)nc21 [Example 49, (S)-1-(1-(4-tert-Bulylphenyl)-2-melhylpropyl)-3-(fluoromethyl)-6-hydroxy-1H-pyrazolo[3,4-d]pyrimidin-4(5H)-one]		2.5 nM		2.3 nM
C[C@@H](c1ccc(C(F)(F)F)cc1)n1nc(CO)c2c(=O)[nH]c(N3CCCC3)nc21 [Example 156, 3-(Hydroxymethyl)-6-pyrrolidin-1-yl-1-{(1S)-1-[4-(trifluoromethyl)phenyl]ethyl}-1,5-dihydro-4H-pyrazolo[3,4-d]pyrimidin-4-one]		0.47 nM		0.5 nM
C[C@@H](c1ccc(C(F)(F)F)cc1)n1nc(CF)c2c(=O)[nH]c(N3CCC3)nc21 [Example 225, 6-Azetidin-1-yl-3-(fluoromethyl)-1-{(1S)-1-[4-(trifluoromethyl)phenyl]ethyl}-1,5-dihydro-4H-pyrazolo[3,4-d]pyrimidin-4-one]		0.4 nM		0.41 nM
C[C@@H](c1ccc(C(F)(F)F)cc1)n1nc(CF)c2c(=O)[nH]c(N3CCCC3)nc21 [Example 226, 3-(Fluoromethyl)-6-pyrrolidin-1-yl-1-{(1S)-1-[4-(trifluoromethyl)phenyl]ethyl}-1,5-dihydro-4H-pyrazolo[3,4-d]pyrimidin-4-one]		0.26 nM		0.22 nM
C[C@@H](c1ccc(C(F)(F)F)cc1)n1nc(CCO)c2c(=O)[nH]c(O)nc21 [Example 293, (S)-6-Hydroxy-3-(2-hydroxyethyl)-1-(1-(4-(trifluoromethyl)phenyl)ethyl)-1H-pyrazolo[3,4-d]pyrimidin-4(5H)-one]		12 nM		10 nM
C[C@@H](c1ccc(C(F)(F)F)cc1)n1nc(CC#N)c2c(=O)[nH]c(O)nc21 [Example 298, (S)-2-(6-Hydroxy-4-oxo-1-(1-(4-(trifluoromethyl)phenyl)ethyl)-4,5-dihydro-1H-pyrazolo[3,4-d]pyrimidin-3-yl)acetonitrile]		5 nM		4.7 nM
COCc1nn([C@@H](C)c2ccc(C(F)(F)F)cc2)c2nc(O)[nH]c(=O)c12 [Example 304, (S)-6-Hydroxy-3-(methoxymethyl)-1-(1-(4-(trifluoromethyl)phenyl)ethyl)-1,5-dihydro-4H-pyrazolo[3,4-d]pyrimidin-4-one]		43 nM		46 nM

Source: US10174037B2, “Dihydropyrazolopyrimidinone compounds as PDE2 inhibitors” (Merck Sharp & Dohme Corp., priority 2015, dated 2019)
